Measurements as given in ChEMBL document CHEMBL1201862, “PubChem BioAssay data set” (2004).
Structures can show the parent of a compound that is named as a salt. Blank lines part the entries; values can stand above or below the compound they belong to. Calls of active or inactive are those of the source.

How the values were obtained:
[1] = molecular target: T1, Tyrosine-protein phosphatase non-receptor type 11 (Homo sapiens, UniProt Q06124); test: PTPN11 enzyme inhibitors – biochemical, selectivity assay for STEP inhibitor project, dose response (AID 602367); assay type: functional; conditions: read-out: IC50_Mean
T1 sequence (Q06124 whole entry): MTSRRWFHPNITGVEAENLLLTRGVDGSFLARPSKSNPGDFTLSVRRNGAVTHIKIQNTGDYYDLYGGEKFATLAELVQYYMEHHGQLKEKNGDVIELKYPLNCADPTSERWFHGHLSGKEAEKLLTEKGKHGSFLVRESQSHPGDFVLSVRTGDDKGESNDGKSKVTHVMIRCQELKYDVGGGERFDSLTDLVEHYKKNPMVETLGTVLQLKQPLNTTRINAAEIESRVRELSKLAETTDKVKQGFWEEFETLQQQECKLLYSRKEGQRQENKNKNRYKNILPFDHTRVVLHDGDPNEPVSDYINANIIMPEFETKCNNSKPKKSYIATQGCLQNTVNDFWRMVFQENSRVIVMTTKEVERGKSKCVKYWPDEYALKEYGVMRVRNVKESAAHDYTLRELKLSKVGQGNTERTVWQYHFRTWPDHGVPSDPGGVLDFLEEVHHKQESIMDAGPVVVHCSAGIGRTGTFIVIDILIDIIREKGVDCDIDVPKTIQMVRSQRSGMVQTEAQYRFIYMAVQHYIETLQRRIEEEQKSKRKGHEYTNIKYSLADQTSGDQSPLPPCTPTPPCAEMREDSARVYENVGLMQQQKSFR

[2] = molecular target: T2, Tyrosine-protein phosphatase non-receptor type 5 (Homo sapiens, UniProt P54829); test: PTPN5 enzyme inhibition – biochemical, fluorescence intensity, uHTS hits, confirmation (AID 602372); assay type: functional; conditions: read-out: IC50_Mean
T2 sequence (P54829 whole entry): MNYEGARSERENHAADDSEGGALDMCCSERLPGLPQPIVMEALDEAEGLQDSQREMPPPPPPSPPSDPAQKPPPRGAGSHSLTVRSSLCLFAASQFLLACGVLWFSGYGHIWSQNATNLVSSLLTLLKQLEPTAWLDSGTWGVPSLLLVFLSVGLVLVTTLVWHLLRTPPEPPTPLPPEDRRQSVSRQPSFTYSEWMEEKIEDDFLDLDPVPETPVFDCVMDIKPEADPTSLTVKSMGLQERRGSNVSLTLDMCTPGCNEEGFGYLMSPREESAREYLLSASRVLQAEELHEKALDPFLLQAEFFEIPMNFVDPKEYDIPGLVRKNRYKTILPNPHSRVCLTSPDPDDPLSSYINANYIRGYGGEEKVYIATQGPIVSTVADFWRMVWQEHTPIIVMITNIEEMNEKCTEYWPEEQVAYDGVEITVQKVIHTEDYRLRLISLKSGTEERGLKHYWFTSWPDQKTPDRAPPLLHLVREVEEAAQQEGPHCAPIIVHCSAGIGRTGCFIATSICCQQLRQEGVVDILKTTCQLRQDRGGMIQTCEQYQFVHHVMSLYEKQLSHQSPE

[3] = molecular target: Dual specificity protein phosphatase 3 (Homo sapiens, UniProt P51452); test: VHR phosphatase inhibition, dose response, selectivity assay for STEP inhibitor project, biochemical (AID 602374); assay type: functional; conditions: read-out: IC50_Mean
Chain of Dual specificity protein phosphatase 3 (P51452 whole entry): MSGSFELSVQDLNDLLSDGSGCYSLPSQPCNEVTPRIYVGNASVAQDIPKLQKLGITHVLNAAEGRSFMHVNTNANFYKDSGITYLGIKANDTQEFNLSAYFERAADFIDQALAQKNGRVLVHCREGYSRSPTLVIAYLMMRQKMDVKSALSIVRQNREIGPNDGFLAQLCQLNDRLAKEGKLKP

[4] = molecular target: T3, Sentrin-specific protease 8 (Homo sapiens, UniProt Q96LD8); assay type: functional
T3 sequence (Q96LD8 whole entry): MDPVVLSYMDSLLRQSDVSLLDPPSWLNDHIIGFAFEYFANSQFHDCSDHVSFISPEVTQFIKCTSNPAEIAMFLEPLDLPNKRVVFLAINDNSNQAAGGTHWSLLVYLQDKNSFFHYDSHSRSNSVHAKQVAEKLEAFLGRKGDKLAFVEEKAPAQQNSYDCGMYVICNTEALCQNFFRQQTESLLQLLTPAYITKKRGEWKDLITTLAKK

[5] = molecular target: T3, Sentrin-specific protease 8; assay type: functional; remark: listed apart in the source
Fatty acid synthase [6] = molecular target: T4, Fatty acid synthase (Homo sapiens, UniProt P49327); test: inhibition of human FAS-TE enzyme activity – biochemical, kinetic fluorescence intensity, dose response (AID 624326); assay type: functional;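 further: rate of fluorescence rise from hydrolysis of a fluorogenic O-methyl fluorescein ester substrate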
T4 sequence (P49327 whole entry): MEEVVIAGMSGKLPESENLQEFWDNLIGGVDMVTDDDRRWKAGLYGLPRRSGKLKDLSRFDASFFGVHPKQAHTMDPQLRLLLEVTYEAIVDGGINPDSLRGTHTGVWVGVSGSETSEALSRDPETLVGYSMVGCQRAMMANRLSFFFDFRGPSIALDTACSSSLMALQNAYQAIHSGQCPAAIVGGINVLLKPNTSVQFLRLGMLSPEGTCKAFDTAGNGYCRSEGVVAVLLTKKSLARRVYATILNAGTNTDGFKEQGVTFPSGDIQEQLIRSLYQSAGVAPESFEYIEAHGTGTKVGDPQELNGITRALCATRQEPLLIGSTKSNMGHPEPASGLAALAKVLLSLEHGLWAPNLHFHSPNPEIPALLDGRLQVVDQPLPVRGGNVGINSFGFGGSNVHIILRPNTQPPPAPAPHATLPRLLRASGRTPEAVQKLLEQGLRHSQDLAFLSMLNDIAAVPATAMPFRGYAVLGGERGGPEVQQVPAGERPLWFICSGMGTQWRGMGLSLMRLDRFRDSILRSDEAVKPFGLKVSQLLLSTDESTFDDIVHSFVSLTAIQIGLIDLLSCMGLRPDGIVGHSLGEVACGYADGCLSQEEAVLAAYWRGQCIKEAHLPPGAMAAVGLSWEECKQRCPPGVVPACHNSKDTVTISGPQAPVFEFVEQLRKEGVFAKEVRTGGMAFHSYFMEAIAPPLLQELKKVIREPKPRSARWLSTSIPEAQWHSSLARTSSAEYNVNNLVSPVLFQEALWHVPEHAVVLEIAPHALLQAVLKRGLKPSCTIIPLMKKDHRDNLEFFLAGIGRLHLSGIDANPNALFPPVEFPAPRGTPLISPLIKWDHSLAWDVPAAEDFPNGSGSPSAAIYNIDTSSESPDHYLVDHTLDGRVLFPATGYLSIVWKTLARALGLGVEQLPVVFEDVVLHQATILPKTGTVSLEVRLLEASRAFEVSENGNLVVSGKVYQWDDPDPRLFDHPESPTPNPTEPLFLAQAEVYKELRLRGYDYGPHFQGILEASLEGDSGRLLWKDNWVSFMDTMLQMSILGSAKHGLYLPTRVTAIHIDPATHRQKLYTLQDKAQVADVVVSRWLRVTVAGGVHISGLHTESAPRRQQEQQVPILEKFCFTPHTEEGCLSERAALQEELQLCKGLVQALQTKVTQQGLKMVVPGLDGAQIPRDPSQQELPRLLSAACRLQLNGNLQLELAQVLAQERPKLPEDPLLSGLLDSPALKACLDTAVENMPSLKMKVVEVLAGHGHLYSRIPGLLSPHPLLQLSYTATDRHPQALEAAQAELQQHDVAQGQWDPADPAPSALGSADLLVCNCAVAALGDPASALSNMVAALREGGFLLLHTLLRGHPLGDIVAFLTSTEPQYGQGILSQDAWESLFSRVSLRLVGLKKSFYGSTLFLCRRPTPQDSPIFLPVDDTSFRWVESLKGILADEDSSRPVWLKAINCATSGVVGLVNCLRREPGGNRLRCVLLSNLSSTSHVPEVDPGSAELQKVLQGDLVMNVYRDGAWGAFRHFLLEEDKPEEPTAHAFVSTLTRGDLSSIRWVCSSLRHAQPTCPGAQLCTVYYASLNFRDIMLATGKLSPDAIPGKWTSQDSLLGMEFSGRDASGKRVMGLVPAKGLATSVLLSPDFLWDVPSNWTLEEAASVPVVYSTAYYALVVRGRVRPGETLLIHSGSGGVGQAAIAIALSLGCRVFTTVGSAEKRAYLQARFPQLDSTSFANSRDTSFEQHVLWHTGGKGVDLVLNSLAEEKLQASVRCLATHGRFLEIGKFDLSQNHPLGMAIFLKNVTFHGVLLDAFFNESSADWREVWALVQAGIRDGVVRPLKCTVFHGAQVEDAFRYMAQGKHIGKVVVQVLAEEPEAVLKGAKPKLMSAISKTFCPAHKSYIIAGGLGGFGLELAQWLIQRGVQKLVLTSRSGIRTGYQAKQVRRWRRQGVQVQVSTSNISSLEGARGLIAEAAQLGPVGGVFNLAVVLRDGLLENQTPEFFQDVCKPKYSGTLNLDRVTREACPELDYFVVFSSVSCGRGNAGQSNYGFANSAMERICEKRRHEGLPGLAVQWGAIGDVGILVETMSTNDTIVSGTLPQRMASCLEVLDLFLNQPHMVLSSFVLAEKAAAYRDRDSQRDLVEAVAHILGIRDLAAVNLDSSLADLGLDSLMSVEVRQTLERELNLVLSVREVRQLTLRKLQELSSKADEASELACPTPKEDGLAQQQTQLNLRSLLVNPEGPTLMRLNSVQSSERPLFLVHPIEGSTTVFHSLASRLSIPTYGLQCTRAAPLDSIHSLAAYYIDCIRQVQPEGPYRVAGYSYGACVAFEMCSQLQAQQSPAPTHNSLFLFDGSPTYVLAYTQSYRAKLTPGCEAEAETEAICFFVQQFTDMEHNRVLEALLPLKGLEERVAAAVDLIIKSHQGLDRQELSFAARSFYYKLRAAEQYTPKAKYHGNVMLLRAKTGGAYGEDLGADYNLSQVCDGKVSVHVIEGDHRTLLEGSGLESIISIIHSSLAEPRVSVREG

Fatty acid synthase [7] = molecular target: T4, Fatty acid synthase; test: inhibition of human FAS-TE enzyme activity – biochemical, endpoint fluorescence intensity, uHTS hits, dose response (AID 624327); assay type: functional;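 further: fluorescence from hydrolysis of an O-methyl fluorescein acyl ester substrate by the enzyme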
cells [8] = test: cells
[9] = viability of uninfected HEp-2 cells – cell-based, HTS, cytotoxicity control for RSV inhibitor project, dose response (AID 2410); assay type: functional; conditions: human respiratory syncytial virus
[10] = activation of miR-122 Renilla sensor silencing – cell-based, Huh7 psiCHECK-miR122, Renilla luciferase, cherry-picked, dose response (AID 651956); assay type: functional;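 further: huh7 hepatoma cells stably carrying a psiCHECK-2 miR-122 sensor plasmid; renilla luciferase signal reporting endogenous miR-122 activity after 48 h compound exposure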
Protein skinhead-1 = molecular target: T5, Protein skinhead-1 (Caenorhabditis elegans, UniProt P34707); assay type: functional
T5 sequence (P34707 whole entry): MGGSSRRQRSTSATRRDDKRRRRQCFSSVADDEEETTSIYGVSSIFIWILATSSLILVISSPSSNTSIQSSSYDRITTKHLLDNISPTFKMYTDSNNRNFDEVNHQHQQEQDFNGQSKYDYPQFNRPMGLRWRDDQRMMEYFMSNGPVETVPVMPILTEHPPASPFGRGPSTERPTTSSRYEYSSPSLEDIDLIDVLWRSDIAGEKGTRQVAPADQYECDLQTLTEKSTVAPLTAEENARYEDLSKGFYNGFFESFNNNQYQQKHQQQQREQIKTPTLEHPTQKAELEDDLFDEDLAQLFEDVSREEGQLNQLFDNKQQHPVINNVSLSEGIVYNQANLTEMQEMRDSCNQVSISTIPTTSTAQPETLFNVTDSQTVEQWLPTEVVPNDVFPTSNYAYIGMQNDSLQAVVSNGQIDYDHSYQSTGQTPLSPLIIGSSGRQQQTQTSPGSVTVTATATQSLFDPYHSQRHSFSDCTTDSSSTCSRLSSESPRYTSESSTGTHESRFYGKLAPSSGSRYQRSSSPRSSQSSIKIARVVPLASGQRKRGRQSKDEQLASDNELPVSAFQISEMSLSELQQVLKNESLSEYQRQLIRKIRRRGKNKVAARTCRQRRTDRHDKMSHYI

[11] = viability loss in CEM21 cells – cell-based, CellTiter-Glo luminescence, cherry-picked, cytotoxicity control for viral fusion inhibitor project, dose response (AID 652042); assay type: functional;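 further: potency for signal decrease meaning cytotoxicity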
[12] = HIV-1 AD8 envelope cell-cell fusion blockers – cherry-pick, dose response (AID 652062); assay type: functional, cell-based;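 further: luciferase signal from cell-cell fusion driven by HIV-1 clade B AD8 Env; potency is for inhibitors of fusion seen as a drop in luminescence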
[13] = off-target signal loss in HeLa-CEM21 co-culture – HeLa F-luc CTL cells, cherry-picked, counter-screen for HIV-1 Env fusion inhibitor project, dose response (AID 652040); assay type: functional, cell-based;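 further: potency for signal decrease marking cytotoxic or nonspecific inhibition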
[14] = blockers of HIV-1 envelope-mediated cell-cell fusion – cherry-pick, dose response (AID 652057); assay type: functional, cell-based
[15] = blockers of HIV-1 ZM109 envelope-driven cell-cell fusion – HeLa effector, CEM target cells, luciferase, cherry-pick, dose response (AID 652058); assay type: functional, cell-based;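 further: luciferase signal from HIV-1 Env mediated cell-cell fusion of effector and target cells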
[16] = molecular target: T6, Small ubiquitin-related modifier 1 (Homo sapiens, UniProt P63165); test: SUMO1 protein-protein binding blockers, potency – biochemical, FRET, dose response (AID 624383); assay type: functional; conditions: read-out: IC50_Mean
T6 sequence (P63165 whole entry): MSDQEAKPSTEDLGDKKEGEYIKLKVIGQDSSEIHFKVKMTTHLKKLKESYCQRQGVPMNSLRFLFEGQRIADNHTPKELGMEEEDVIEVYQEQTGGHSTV

[17] = molecular target: T6, Small ubiquitin-related modifier 1; test: SUMO1 protein interaction blockers, potency – biochemical, fluorescence polarization, uHTS hits, dose response (AID 624382); assay type: functional; conditions: read-out: IC50_Mean
Cytochrome P450 2C9 = Cytochrome P450 2C9 (Homo sapiens, UniProt P11712)
Chain of Cytochrome P450 2C9 (P11712 whole entry): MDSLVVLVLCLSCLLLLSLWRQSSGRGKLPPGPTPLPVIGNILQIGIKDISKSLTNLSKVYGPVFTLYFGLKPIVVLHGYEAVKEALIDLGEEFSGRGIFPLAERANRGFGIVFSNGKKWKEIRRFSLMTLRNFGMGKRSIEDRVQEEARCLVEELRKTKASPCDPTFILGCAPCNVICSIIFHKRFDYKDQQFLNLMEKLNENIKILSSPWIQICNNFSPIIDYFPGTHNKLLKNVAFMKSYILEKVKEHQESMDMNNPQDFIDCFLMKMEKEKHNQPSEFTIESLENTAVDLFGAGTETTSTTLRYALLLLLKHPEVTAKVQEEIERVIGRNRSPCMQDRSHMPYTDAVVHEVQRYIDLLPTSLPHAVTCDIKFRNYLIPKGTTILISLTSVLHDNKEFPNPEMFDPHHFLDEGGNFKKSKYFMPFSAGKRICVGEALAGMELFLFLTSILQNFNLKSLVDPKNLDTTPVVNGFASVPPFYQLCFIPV

Cytochrome P450 3A4 = Cytochrome P450 3A4 (Homo sapiens, UniProt P08684);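 further: CYP3A4 tested as one member of a cytochrome P450 panel screen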
Chain of Cytochrome P450 3A4 (P08684 whole entry): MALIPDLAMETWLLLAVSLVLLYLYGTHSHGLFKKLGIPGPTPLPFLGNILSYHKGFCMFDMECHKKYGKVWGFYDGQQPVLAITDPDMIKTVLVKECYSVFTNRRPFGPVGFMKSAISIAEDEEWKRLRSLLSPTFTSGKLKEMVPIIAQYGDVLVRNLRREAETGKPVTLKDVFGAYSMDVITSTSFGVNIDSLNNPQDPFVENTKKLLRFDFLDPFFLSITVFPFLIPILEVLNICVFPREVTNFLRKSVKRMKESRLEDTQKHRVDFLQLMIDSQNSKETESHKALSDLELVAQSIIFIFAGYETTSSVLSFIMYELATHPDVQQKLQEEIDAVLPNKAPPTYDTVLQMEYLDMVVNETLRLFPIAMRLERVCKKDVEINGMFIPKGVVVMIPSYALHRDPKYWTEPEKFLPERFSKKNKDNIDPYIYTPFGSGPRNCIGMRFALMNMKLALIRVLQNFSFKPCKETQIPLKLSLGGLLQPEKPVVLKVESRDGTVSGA

[18] = molecular target: T7, Trace amine-associated receptor 1 (Homo sapiens, UniProt Q96RJ0); test: Counterscreen for agonists of the human trace amine associated receptor 1 (hTAAR1): Fluorescence-based cell-based high throughput dose response assay to identify hTAAR1 agonist that also desensitize TAAR1 receptor response.; assay type: functional
T7 sequence (Q96RJ0 whole entry): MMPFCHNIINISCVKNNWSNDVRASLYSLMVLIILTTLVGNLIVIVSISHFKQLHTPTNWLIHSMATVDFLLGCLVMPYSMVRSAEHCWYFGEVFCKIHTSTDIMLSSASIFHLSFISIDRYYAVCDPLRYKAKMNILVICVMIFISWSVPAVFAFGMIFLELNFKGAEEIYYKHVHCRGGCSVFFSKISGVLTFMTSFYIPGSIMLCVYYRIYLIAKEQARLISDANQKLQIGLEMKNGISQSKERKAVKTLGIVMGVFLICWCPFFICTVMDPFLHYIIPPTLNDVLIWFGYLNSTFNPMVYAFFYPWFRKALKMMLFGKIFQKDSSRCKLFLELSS

cells [19] = assay type: functional, cell-based
cells [20] = assay type: functional, cell-based; remark: listed apart in the source
[21] = molecular target: T7, Trace amine-associated receptor 1; test: Fluorescence-based cell-based high throughput dose response assay to identify agonists of the human trace amine associated receptor 1 (TAAR1).; assay type: functional
[22] = molecular target: T8, Heat shock factor protein 1 (Mus musculus, UniProt P38532); test: decrease of HSF1-responsive luciferase luminescence – cell-based, NIH3T3, dose retest, confirmation (AID 2382); assay type: functional;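 further: NIH3T3 fibroblasts with HSF1-driven luciferase reporter stressed by proteasome inhibitor MG132; luminescence from HSF1-driven luciferase expression after 8 hours of MG132 stress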
T8 sequence (P38532 whole entry): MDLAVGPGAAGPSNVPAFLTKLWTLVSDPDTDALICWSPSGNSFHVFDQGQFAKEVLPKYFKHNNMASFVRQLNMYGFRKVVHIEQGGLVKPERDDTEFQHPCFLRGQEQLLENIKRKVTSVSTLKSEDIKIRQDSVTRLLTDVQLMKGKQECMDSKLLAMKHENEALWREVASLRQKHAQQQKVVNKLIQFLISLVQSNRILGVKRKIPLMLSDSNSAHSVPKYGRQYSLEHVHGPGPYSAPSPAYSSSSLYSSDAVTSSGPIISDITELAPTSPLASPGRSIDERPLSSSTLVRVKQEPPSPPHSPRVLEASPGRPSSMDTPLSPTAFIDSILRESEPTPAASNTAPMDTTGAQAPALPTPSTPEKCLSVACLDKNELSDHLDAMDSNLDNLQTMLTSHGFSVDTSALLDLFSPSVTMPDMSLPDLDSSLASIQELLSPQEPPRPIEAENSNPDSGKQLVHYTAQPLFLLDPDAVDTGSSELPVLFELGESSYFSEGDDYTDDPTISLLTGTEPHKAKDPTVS

SMILES: O=C1Cc2ccccc2C(=O)N1OCc1ccc(Cl)cc1
IC50 [4]: 11.8 µM (active)
IC50 [5]: 11 µM (active)

SMILES: CCn1c2ccc(C)cc2c2nnc(NN)nc21
IC50 (cells [8]): 17.4 µM (active)
CC50 [9]: 32.3 µM (active)
IC50 [4]: > 100 µM (inactive)
IC50 [5]: 8.84 µM (active)

SMILES: CN1C(=O)c2cc(NC(=O)Nc3cccc(Cl)c3)ccc2OC[C@H]2O[C@@H](CC(=O)NCCc3ccncc3)CC[C@H]21
AC50 [10]: 31.4 µM (active)

SMILES: C/C=C/c1ccc([C@@H]2[C@@H](CO)N(C(C)=O)[C@@H]2CN(C)C(=O)c2ccccn2)cc1
AC50 [10]: 39.6 µM (active)

SMILES: CCCCCNC(=O)C(c1ccncc1)n1c(=O)c(-c2cc3ccccc3[nH]2)nc2ccccc21 (configuration not stated)
AC50 [11]: 31.9 µM (active)
AC50 [12]: 7.8 µM (active)
AC50 [13]: 4 µM (active)
AC50 [14]: 2.62 µM (active)
AC50 [15]: 4.68 µM (active)

SMILES: COc1ccc(-c2cc(=O)c3c(C)cc(O)cc3o2)cc1
IC50 [16]: 8.68 µM (active)
IC50 [17]: > 66.6 µM (inactive)

SMILES: C=CCOc1c(Br)cc(CNc2ccc(NC(=O)C(C)C)c(OC)c2)cc1OC
AC50 [11]: 63.1 µM (active)
AC50 (Cytochrome P450 2C9): 0.00562 µM (inconclusive)

SMILES: N=C(N)SCc1ccccc1Cl
IC50 [18]: 5.21 µM (active)
IC50 (cells [19]): > 29.9 µM (inactive)
EC50 (cells [20]): > 29.9 µM (inactive)
EC50 [21]: 1.42 µM (active)
EC50 [22]: 121 µM (active)

SMILES: CC(=O)c1c(C)[nH]c(C(=O)OCC(=O)c2ccc3c(c2)NC(=O)CO3)c1C
IC50 [16]: 6.39 µM (active)
IC50 [17]: > 66.6 µM (inactive)

SMILES: c1ccc2c(CC3=NCCN3)cccc2c1 [NAPHAZOLINE HYDROCHLORIDE]
IC50 [18]: 1.15 µM (active)
IC50 (cells [19]): > 29.9 µM (inactive)
EC50 (cells [20]): > 29.9 µM (inactive)
EC50 [21]: 0.14 µM (active)

Other lines, results leading:

IC50 [1]: 17.9 µM (active)
IC50 [2]: > 80 µM (inactive)
IC50 [3]: 3.44 µM (active)
SMILES: CC(=O)N1CCC(N(CCN2CCOCC2)C(=S)Nc2ccc(C)cc2)CC1

IC50 (Fatty acid synthase [6]): 7.56 µM (active)
IC50 (Fatty acid synthase [7]): 11.5 µM (active)
SMILES: COCCCNC(=O)CC1C[C@H](C(=O)N2CCOCC2)[C@@]2(CCC3CCCC3)c3[nH]c4ccc(OC)cc4c3CCN2C1=O (some centres not stated)

IC50 (Fatty acid synthase [6]): 0.778 µM (active)
IC50 (Fatty acid synthase [7]): 1.1 µM (active)
SMILES: O=C(COc1cc([N+](=O)[O-])cc2cccnc12)NCCC1=CCCCC1

IC50 (Fatty acid synthase [6]): 4.64 µM (active)
IC50 (Fatty acid synthase [7]): 3.96 µM (active)
SMILES: CCCCCn1c(CN2CCN(c3cccc(Cl)c3)CC2)nc2c1c(=O)n(C)c(=O)n2C

IC50 (Fatty acid synthase [6]): 1.64 µM (active)
IC50 (Fatty acid synthase [7]): 2.18 µM (active)
SMILES: CC(NC(=O)Nc1cccc([N+](=O)[O-])c1)c1ccc2c(c1)OCO2 (configuration not stated)

IC50 (Protein skinhead-1): > 100 µM (inactive)
SMILES: C[C@@H]1C=C[C@](Cc2ccccc2)(C(=O)NCC2CC2)N1C(=O)c1ccccc1

IC50 (Protein skinhead-1): > 100 µM (inactive)
SMILES: O=C(Nc1cc2nn(-c3ccccc3)nc2cc1Cl)c1ccco1

AC50 (Cytochrome P450 3A4): inconclusive
IC50 (Protein skinhead-1): > 100 µM (inactive)
SMILES: CSc1ccc(NC(=O)NCCCN2CCN(c3ccccc3F)CC2)cc1

IC50 (Protein skinhead-1): 25.1 µM (active)
SMILES: Fc1ccccc1-c1nc(-c2ccncc2)no1

IC50 [1]: 3.9 µM (active)
IC50 [2]: 24.6 µM (inactive)
IC50 [3]: 1.42 µM (active)
SMILES: CCOc1ccc(C(=S)N2CCN(C)CC2)cc1
